Test results from US5085989A, “Method and reagent for quantitative analysis of 3-oxo-5β-steroid” (Daiichi Pure Chemicals Co., Ltd., priority 1986, dated 1992).
Like-named read-outs stand apart in the source and are kept apart here.

Test: Dehydrochoric acid level in serum after intravenous administration (loading test)
Type: in vivo, human (liver cirrhosis patient and healthy subject)
Conditions: human, 1000 mg, 1g intravenously; for AUC: read-out: area under concentration curve of the compound in blood (AUC) (converted); for k el: read-out: elimination constant (Kel) (converted)
Method: A liver cirrhosis patient and a healthy subject were each intravenously given 1g of dehydrochoric acid. The changes of the dehydrochoric acid level in serum after the administration were determined according to the same procedure as in Example 1 and using the reagent of Example 1. The results are shown in the appended FIG. 1. The elimination constant (keλ), the half-life period (T 1/2) and the area under concentration curve of the compound in blood (AUC) are given in Table 3.

SMILES: C[C@H](CCC(=O)O)[C@H]1CC[C@H]2[C@@H]3C(=O)C[C@@H]4CC(=O)CC[C@]4(C)[C@H]3CC(=O)[C@]12C [Dehydrochoric Acid, dehydrochoric acid]
- AUC (healthy subject): 45400 ng·h/mL
- k el (healthy subject): 0.00118 s⁻¹
- AUC (liver cirrhosis patient): 23300 ng·h/mL
- k el (liver cirrhosis patient): 0.00262 s⁻¹
